Laboratory results as given in patent publication US20220372014A1, “NEUROPROTECTIVE COMPOUNDS AND METHODS OF USE THEREOF” (The Johns Hopkins University, priority 2019, published 2022).

What was measured:
MIF = target: T1, MIF (Homo sapiens, UniProt P14174); experiment: Nuclease assay of Example 3 (MIF inhibitory activity, Table 4); format: biochemical; parameters: (%) inhibition of MIF nuclease activity: concentration or dose not given beside the values; settings: nuclease assay of Example 3
T1 sequence (P14174 1-115): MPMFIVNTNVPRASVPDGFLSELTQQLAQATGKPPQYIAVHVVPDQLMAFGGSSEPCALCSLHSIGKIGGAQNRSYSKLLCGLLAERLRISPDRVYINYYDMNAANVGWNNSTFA
Method: A rapafucin library was synthesized as described in WO2017/136708 and Guo et al. (2018) Nat. Chem. 11:254-63. The hybrid macrocyclic library consisted of 45,000 compounds in pools of 15 individual compounds. The library compounds were screened for MIF inhibitory activity using a nuclease assay as detailed in FIG. 1 and below.
Nuclease assay: Human genomic DNA (200 ng/reaction, Promega), pcDNA (200 ng/reaction) or PS^30 and its related and non-related substrates (1 μM) was incubated with wild type MIF or its variants at a final concentration of 0.25-8 μM as indicated in 10 mM Tris-HCl buffer (pH 7.0) containing 10 mM MgCl2 and 1 mM DTT or specific buffer as indicated, for 1 h (with pcDNA and small DNA substrates) or 4 h (with human genomic DNA) at 37° C. The reaction was terminated with loading buffer containing 10 mM EDTA and incubation on ice. The human genomic DNA samples were immediately separated on a 1.2% pulse field certified agarose in 0.5×TBE buffer with initial switch time of 1.5 s and a final switch time of 3.5 s for 12 h at 6 V/cm. pcDNA samples were determined by 1% agarose gel. Small DNA substrates were separated on 15% or 25% TBE-urea polyacrylamide (PAGE) gel or 20% TBE PAGE gel. Then gel was stained with 0.5 μg/ml Ethidium Bromide (EtBr) followed by electrophoretic transfer to nylon membrane. Then, Biotin-labeled DNA is further detected by chemiluminescence using Chemiluminescent Nucleic Acid Detection Module (Thermo Scientific).
Structure-activity relationship (SAR) analysis was then conducted on the compounds identified as having MIF inhibitory activity. Compounds having the structure of Formula (I) were then synthesized as shown in Example 1 and tested for MIF inhibitory activity using the nuclease assay described herein and neuronal protection via a cell death assay as detailed below.

[1] = system: HeLa cells or neuronal cells; experiment: Cell death assay of Example 3 (MNNG, alamarBlue; protection against parthanatos, Table 4); format: cell-based; settings: 1 μM test compound, MNNG-induced cell death, alamarBlue
Method: Cell death assay: 200 μl of cells (HeLa cells or neuronal cells) culture (1×10^4 cells/well) were plated into the wells of a sterile 96-well cell culture plate. The cells were incubated for 18 hours at 37° C. The medium was removed and changed with 100 μl/well of 1 μM test compound. Incubate for 1 hours at 37° C. Ten μl of 500 μM MNNG (N-Methyl-N′-nitro-N-nitrosoguanidine) was added to each well. The medium was aspirated well and incubated for 15 min at 37° C. The cells were washed with the fresh medium. The medium was changed with 1 μM of test compound and incubated for 18 hours at 37° C. 10 μl/well of alamarBlue reagent was added directly to the well and incubated for 1 to 4 hours at 37° C. Fluorescence was measured using a fluorescence excitation wavelength of 560 nm and emission at 590 nm. The percentage of cell death was determined as the ratio of live to dead cells compared with the percentage of cell death in control wells to account for cell death attributed to mechanical stimulation of the cultures.

| Structure (SMILES) | (%) inhibition of MIF nuclease activity (MIF) [%] | (%) inhibition of cell death [1] [%] |
| --- | --- | --- |
| COc1ccc(CC[C@H]2OC(=O)[C@@H]3CCCCN3C(=O)C(=O)C(C)(C)COC(=O)C=CCCN(C)C(=O)[C@H](Cc3ccc4ccccc4c3)NC(=O)[C@H](COC(C)(C)C)N(C)C(=O)[C@H](Cc3ccc4ccccc4c3)NC(=O)[C@H](C)N(C)C(=O)COc3cccc2c3)cc1OC [compound 28] | 66.6 | 69.6 |
| COc1ccc(CC[C@H]2OC(=O)[C@@H]3CCCCN3C(=O)C(=O)C(C)(C)COC(=O)C=CCCN(C)C(=O)[C@@H]3CCCN3C(=O)[C@H](COC(C)(C)C)N(C)C(=O)C(c3ccccc3)NC(=O)[C@H](C)N(C)C(=O)COc3cccc2c3)c(O)c1OC (some centres unmarked) [compound 119] | 19.7 | 60.7 |
| COc1ccc(CC[C@H]2OC(=O)[C@@H]3CCCCN3C(=O)C(=O)C(C)(C)COC(=O)C=CCCN(C)C(=O)[C@@H]3CCCN3C(=O)[C@H](COC(C)(C)C)N(C)C(=O)[C@H](Cc3ccccc3)N(C)C(=O)[C@H](C)NC(=O)COc3cccc2c3)cc1OC [compound 138] | −4.8 | 47.0 |
| C[C@H]1C(=O)NC(c2ccccc2)C(=O)N(C)[C@@H](COC(C)(C)C)C(=O)N2CCC[C@H]2C(=O)N(C)CCC=CC(=O)OCC(C)(C)C(=O)C(=O)N2CCCC[C@H]2C(=O)O[C@H](CCc2ccccc2)c2cccc(c2)OCC(=O)N1C (some centres unmarked) [compound 149] | −11.8 | 51.0 |
| COCC[C@@H]1NC(=O)[C@H](C(C)C)N(C)C(=O)[C@@H](Cc2ccccc2)NC(=O)[C@H](CC(C)C)N(C)C(=O)CCC(=O)Nc2cccc(c2)[C@@H](CCc2ccc(OC)c(OC)c2)OC(=O)[C@@H]2CCCCN2C(=O)C(=O)C(C)(C)COC(=O)C=CCCN(C)C1=O [compound 80] | 10.3 | 49.5 |
| COc1ccc(CC[C@H]2OC(=O)[C@@H]3CCCCN3C(=O)C(=O)C(C)(C)COC(=O)C=CCCN(C)C(=O)[C@@H]3CCCN3C(=O)[C@H](COC(C)(C)C)N(C)C(=O)[C@H](Cc3ccccc3)NC(=O)[C@H](C)N(C)C(=O)COc3cccc2c3)cc1OC [compound 101] | 9.1 | 31.5 |
| COc1ccc(CC[C@H]2OC(=O)[C@@H]3CCCCN3C(=O)C(=O)C(C)(C)COC(=O)C=CCCN(C)C(=O)[C@@H](C)NC(=O)[C@H](COC(C)(C)C)N(C)C(=O)[C@@H](CC(C)C)NC(=O)CN(C)C(=O)COc3cccc2c3)cc1OC [compound 3] | 21.0 | 40.6 |
| COc1ccc(CC[C@H]2OC(=O)[C@@H]3CCCCN3C(=O)C(=O)C(C)(C)COC(=O)C=CCCN(C)C(=O)[C@@H]3CCCN3C(=O)[C@H](COC(C)(C)C)N(C)C(=O)[C@H](Cc3ccc(C#N)cc3)NC(=O)[C@H](C)NC(=O)COc3cccc2c3)cc1OC [compound 143] | −1.1 | 46.7 |
| COc1ccc(CC[C@H]2OC(=O)[C@@H]3CCCCN3C(=O)C(=O)C(C)(C)COC(=O)C=CCCN(C)C(=O)CNC(=O)[C@H](COC(C)(C)C)N(C)C(=O)C(c3ccccc3)NC(=O)[C@H](C)N(C)C(=O)COc3cccc2c3)cc1OC (some centres unmarked) [compound 46] | 21.7 | 52.5 |
| COc1ccc(CC[C@H]2OC(=O)[C@@H]3CCCCN3C(=O)C(=O)C(C)(C)COC(=O)C=CCCN(C)C(=O)[C@@H]3CCCN3C(=O)[C@H](COC(C)(C)C)N(C)C(=O)C(c3ccccc3)NC(=O)[C@H](Cc3ccccc3)N(C)C(=O)COc3cccc2c3)cc1OC (some centres unmarked) [compound 145] | 6.7 | 46.6 |
| COc1ccc(CC[C@H]2OC(=O)[C@@H]3CCCCN3C(=O)C(=O)C(C)(C)COC(=O)C=CCCN(C)C(=O)[C@H](Cc3ccccc3)NC(=O)[C@H](COC(C)(C)C)N(C)C(=O)[C@@H](CC(C)C)NC(=O)CN(C)C(=O)COc3cccc2c3)cc1OC [compound 8] | 31.3 | 61.6 |
| COc1ccc(CC[C@H]2OC(=O)[C@@H]3CCCCN3C(=O)C(=O)C(C)(C)COC(=O)C=CCCN(C)C(=O)CNC(=O)[C@H](COC(C)(C)C)N(C)C(=O)[C@@H](CC(C)C)NC(=O)CN(C)C(=O)COc3cccc2c3)cc1OC [compound 1] | 25.3 | 43.6 |
| COc1ccc(CC[C@H]2OC(=O)[C@@H]3CCCCN3C(=O)C(=O)C(C)(C)COC(=O)C=CCCN(C)C(=O)[C@@H]3CC(O)CN3C(=O)[C@H](COC(C)(C)C)N(C)C(=O)C(c3ccccc3)NC(=O)[C@H](C)N(C)C(=O)COc3cccc2c3)cc1OC (some centres unmarked) [compound 93] | 14.6 | 66.8 |
| CCC[C@@H]1NC(=O)[C@H](COC(C)(C)C)N(C)C(=O)[C@@H](CC(C)C)NC(=O)CN(C)C(=O)COc2cccc(c2)[C@@H](CCc2ccc(OC)c(OC)c2)OC(=O)[C@@H]2CCCCN2C(=O)C(=O)C(C)(C)COC(=O)C=CCCN(C)C1=O [compound 4] | 10.8 | 39.7 |

Now from value to compound, other results behind:

| (%) inhibition of MIF nuclease activity (MIF) [%] | Structure (SMILES) | (%) inhibition of cell death [1] [%] |
| --- | --- | --- |
| 42.2 | COCC[C@@H]1NC(=O)[C@H](COC(C)(C)C)N(C)C(=O)[C@H](Cc2ccc3ccccc3c2)NC(=O)[C@H](C)N(C)C(=O)COc2cccc(c2)[C@@H](CCc2ccc(OC)c(OC)c2)OC(=O)[C@@H]2CCCCN2C(=O)C(=O)C(C)(C)COC(=O)C=CCCN(C)C1=O [compound 20] | 60.6 |
| −1.1 | COc1ccc(CC[C@H]2OC(=O)[C@@H]3CCCCN3C(=O)C(=O)C(C)(C)COC(=O)C=CCCN(C)C(=O)[C@@H]3CCCN3C(=O)[C@H](COC(C)(C)C)N(C)C(=O)C(c3ccccc3)NC(=O)[C@H](COC(C)(C)C)N(C)C(=O)COc3cccc2c3)cc1OC (some centres unmarked) [compound 146] | 43.9 |
| 28.9 | COc1ccc(CC[C@H]2OC(=O)[C@@H]3CCCCN3C(=O)C(=O)C(C)(C)COC(=O)C=CCCN(C)C(=O)[C@H](CC3CCCCC3)NC(=O)[C@H](COC(C)(C)C)N(C)C(=O)[C@@H](CC(C)C)NC(=O)CN(C)C(=O)COc3cccc2c3)cc1OC [compound 12] | 52.0 |
| 14.1 | COc1ccc(CC[C@H]2OC(=O)[C@@H]3CCCCN3C(=O)C(=O)C(C)(C)COC(=O)C=CCCN(C)C(=O)[C@H](Cc3ccccc3)NC(=O)[C@H](COC(C)(C)C)N(C)C(=O)C(c3ccccc3)NC(=O)[C@H](C)N(C)C(=O)COc3cccc2c3)cc1OC (some centres unmarked) [compound 53] | 58.3 |
| 78.4 | COc1ccc(CC[C@H]2OC(=O)[C@@H]3CCCCN3C(=O)C(=O)C(C)(C)COC(=O)C=CCCN(C)C(=O)[C@H](CC3CCCCC3)NC(=O)[C@H](COC(C)(C)C)N(C)C(=O)[C@@H](Cc3ccc4ccccc4c3)NC(=O)[C@H](C)N(C)C(=O)COc3cccc2c3)cc1OC [compound 27] | 72.1 |
| 12.3 | COc1ccc(CC[C@H]2OC(=O)[C@@H]3CCCCN3C(=O)C(=O)C(C)(C)COC(=O)C=CCCN(C)C(=O)[C@H](CC(C)C)NC(=O)[C@H](C(C)C)N(C)C(=O)[C@@H](Cc3ccccc3)NC(=O)[C@H](CC(C)C)N(C)C(=O)CCC(=O)Nc3cccc2c3)cc1OC [compound 81] | 49.8 |
| 10.7 | COc1cccc(CC[C@H]2OC(=O)[C@@H]3CCCCN3C(=O)C(=O)C(C)(C)COC(=O)C=CCCN(C)C(=O)[C@@H]3CCCN3C(=O)[C@H](COC(C)(C)C)N(C)C(=O)C(c3ccccc3)NC(=O)[C@H](C)N(C)C(=O)COc3cccc2c3)c1 (some centres unmarked) [compound 150] | 50.8 |
| 16.5 | COc1ccc(CC[C@H]2OC(=O)[C@@H]3CCCCN3C(=O)C(=O)C(C)(C)COC(=O)C=CCCN(C)C(=O)[C@H](Cc3ccc4ccccc4c3)NC(=O)[C@H](COC(C)(C)C)N(C)C(=O)C(c3ccccc3)NC(=O)[C@H](C)N(C)C(=O)COc3cccc2c3)cc1OC (some centres unmarked) [compound 58] | 56.1 |
